Experimental data reported in patent publication US20210115104A1, “AMYLIN ANALOGUES” (Zealand Pharma A/S, priority 2015, published 2021).
*1 amine or outer side, *2 acyl side, *3 side chain or, on linkers, in order; H or OH if unused. Where a SMILES comes first, the peptide text is derived from it. Bridges are numbered along the chain shown (N, C = ends). [ ]: non-standard residue; d: D form. The star is where a group is joined. C20 diacid = O=C(O)CCCCCCCCCCCCCCCCCCC(=O)*; γGlu = O=C(O)[C@H](CCC(=O)[*:2])N[*:1]; Hyp = O=C(O)[C@@H]1C[C@@H](O)CN1; NMeI = CC[C@H](C)[C@H](NC)C(=O)O; Aad = N[C@@H](CCCC(=O)O)C(=O)O; Sar = CNCC(=O)O

Key:
[1] = target: T1, human calcitonin receptor (hCTR2) (Homo sapiens, UniProt P30988); experiment: hCTR2 cAMP assay (AlphaScreen) in COS7 cells; assay type: cell-based; settings: cAMP induction, COS7 cells expressing hCTR2; Table 1; read-out: hCTR2 EC50
T1 construct: expressed in transfected cells
T1 sequence (P30988 25-474): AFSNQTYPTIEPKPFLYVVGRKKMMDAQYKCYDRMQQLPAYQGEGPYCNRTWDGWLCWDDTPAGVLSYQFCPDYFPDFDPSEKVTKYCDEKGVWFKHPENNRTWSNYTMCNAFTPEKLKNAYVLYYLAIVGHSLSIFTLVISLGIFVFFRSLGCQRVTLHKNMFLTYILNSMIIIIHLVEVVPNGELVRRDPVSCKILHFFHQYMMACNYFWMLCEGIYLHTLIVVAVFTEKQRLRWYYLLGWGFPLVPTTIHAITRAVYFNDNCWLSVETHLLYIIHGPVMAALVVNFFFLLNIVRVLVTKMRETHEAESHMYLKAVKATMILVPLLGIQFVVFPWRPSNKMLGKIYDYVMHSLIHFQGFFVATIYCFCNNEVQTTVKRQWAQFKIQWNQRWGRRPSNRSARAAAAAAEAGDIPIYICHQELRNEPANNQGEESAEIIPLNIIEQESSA
Outline: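 Stable hCTR2 clone in RAMP-naïve COS7 cells stimulated 15 min at 37 °C with increasing peptide concentrations in Tyrode buffer pH 7.4 containing IBMX and 0.1% casein. cAMP in lysates measured by AlphaScreen; EC50 from 4-parameter logistic fit.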

[2] = target: T2, human amylin receptor 3 (hAMYR3), hCTR2 co-expressed with hRAMP3 (Homo sapiens, UniProt O60896+P30988); experiment: hAMYR3 cAMP assay (AlphaScreen) in COS7 cells; assay type: cell-based; settings: cAMP induction, COS7 cells expressing hAMYR3; Table 1; read-out: hAMYR3 EC50
T2 construct: expressed in transfected cells
T2 sequence (P30988 25-474): T1 sequence (P30988 25-474)
T2 sequence (O60896 24-148 partner): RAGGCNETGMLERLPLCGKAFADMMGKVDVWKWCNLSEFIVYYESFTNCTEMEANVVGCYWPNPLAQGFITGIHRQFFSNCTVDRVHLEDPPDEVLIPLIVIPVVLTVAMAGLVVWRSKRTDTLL
Outline: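 Stable COS7 clone co-expressing hCTR2 and hRAMP3 was exposed to increasing peptide concentrations in Tyrode buffer (pH 7.4) with 100 µM IBMX and 0.1% casein for 15 min at 37 °C. Lysate cAMP was measured by AlphaScreen; EC50 came from 4-parameter logistic fitting.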

[3] = Assessment of chemical stability (RP-HPLC normalized purity); assay type: physicochemical; settings: 7 days, 40° C., Table 1; for Normalized purity after 7 days, 40° C., pH 4: pH 4, 0.2 mg/ml; for Normalized purity after 7 days, 40° C., pH 6: pH 6, 0.2 mg/ml; for Normalized purity after 7 days, 40° C., pH 7.5: pH 7.5, 0.2 mg/ml; for Normalized purity after 7 days, 40° C., pH 9: pH 9, 0.2 mg/ml
Outline: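 Peptides at 0.2 mg/ml in water adjusted to pH 4, 6, 7.5 or 9, incubated at 40° C for 7 days. Main-peak area-% by RP-HPLC (C8 ammonium formate or C18 TFA gradient, UV 220 nm), normalized to T=0 as 100.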

Row | SMILES | EC50 [1] [pM] | EC50 [2] [pM] | Normalized purity after 7 days, 40° C., pH 4 [3] | Normalized purity after 7 days, 40° C., pH 6 [3] | Normalized purity after 7 days, 40° C., pH 7.5 [3] | Normalized purity after 7 days, 40° C., pH 9 [3]
1 | CC[C@H](C)[C@@H](C(=O)N[C@@H](CC(C)C)C(=O)N[C@@H](CO)C(=O)N[C@@H](CO)C(=O)N[C@H](C(=O)N[C@@H](CCC(=O)O)C(=O)N[C@H](C(=O)NCC(=O)N[C@@H](CO)C(=O)N[C@@H](CO)C(=O)N[C@H](C(=O)N1C[C@H](O)C[C@H]1C(N)=O)[C@@H](C)O)C(C)C)[C@@H](C)O)N(C)C(=O)[C@H](C)NC(=O)CN(C)C(=O)[C@H](Cc1ccccc1)NC(=O)[C@H](CO)NC(=O)[C@H](CO)NC(=O)[C@H](CCCNC(=N)N)NC(=O)[C@@H](NC(=O)[C@H](CC(C)C)NC(=O)[C@H](Cc1ccccc1)NC(=O)[C@H](CC(=O)O)NC(=O)[C@H](C)NC(=O)[C@H](CC(C)C)NC(=O)[C@H](CCCNC(=N)N)NC(=O)[C@H](CCC(=O)O)NC(=O)[C@@H](NC(=O)[C@H](C)NC(=O)[C@@H]1CSSC[C@H](NC(=O)[C@H](CCCNC(=N)N)NC(=O)CC[C@H](NC(=O)CCCCCCCCCCCCCCCCCCC(=O)O)C(=O)O)C(=O)NCC(=O)N[C@@H]([C@@H](C)O)C(=O)N[C@@H](C)C(=O)N[C@@H]([C@@H](C)O)C(=O)N1)[C@@H](C)O)[C@@H](C)O [Compound 41, [19CD]-isoGlu-R-C( )-GTAT-C( )-ATERLADFLTRSSF-Gly(Me)-A-Ile(Me)-LSSTEVGSST-Hyp-NH2] ({C20 diacid-γGlu}-RCGTATCATERLADFLTRSSF[Sar]A[NMeI]LSSTEVGSST[Hyp]-NH2; disulfide 2-7) | 150 | 340 | B (B = 70-90%) | A (A = >90%) | A (A = >90%) | A (A = >90%)
2 | CC[C@H](C)[C@@H](C(=O)N[C@@H](CC(C)C)C(=O)N[C@@H](CO)C(=O)N[C@@H](CO)C(=O)N[C@H](C(=O)N[C@@H](CCC(=O)O)C(=O)N[C@H](C(=O)NCC(=O)N[C@@H](CO)C(=O)N[C@@H](CO)C(=O)N[C@H](C(=O)N1C[C@H](O)C[C@H]1C(N)=O)[C@@H](C)O)C(C)C)[C@@H](C)O)N(C)C(=O)[C@H](C)NC(=O)CN(C)C(=O)[C@H](Cc1ccccc1)NC(=O)[C@H](CO)NC(=O)[C@H](CO)NC(=O)[C@H](CCCNC(=N)N)NC(=O)[C@@H](NC(=O)[C@H](CC(C)C)NC(=O)[C@H](Cc1ccccc1)NC(=O)[C@H](CCCC(=O)O)NC(=O)[C@H](C)NC(=O)[C@H](CC(C)C)NC(=O)[C@H](CCCNC(=N)N)NC(=O)[C@H](CCC(=O)O)NC(=O)[C@@H](NC(=O)[C@H](C)NC(=O)[C@@H]1CSSC[C@H](NC(=O)[C@H](CCCNC(=N)N)NC(=O)CC[C@H](NC(=O)CCCCCCCCCCCCCCCCCCC(=O)O)C(=O)O)C(=O)NCC(=O)N[C@@H]([C@@H](C)O)C(=O)N[C@@H](C)C(=O)N[C@@H]([C@@H](C)O)C(=O)N1)[C@@H](C)O)[C@@H](C)O [Compound 43, [19CD]-isoGlu-R-C( )-GTAT-C( )-ATERLA-Aad-FLTRSSF-Gly(Me)-A-Ile(Me)-LSSTEVGSST-Hyp-NH2] ({C20 diacid-γGlu}-RCGTATCATERLA[Aad]FLTRSSF[Sar]A[NMeI]LSSTEVGSST[Hyp]-NH2; disulfide 2-7) | 220 | 350 | A (A = >90%) | A (A = >90%) | A (A = >90%) | A (A = >90%)
3 | CC[C@H](C)[C@@H](C(=O)N[C@@H](CC(C)C)C(=O)N[C@@H](CO)C(=O)N[C@@H](CO)C(=O)N[C@H](C(=O)N[C@@H](CCC(=O)O)C(=O)N[C@H](C(=O)NCC(=O)N[C@@H](CO)C(=O)N[C@@H](CC(N)=O)C(=O)N[C@H](C(=O)N1CCC[C@H]1C(N)=O)[C@@H](C)O)C(C)C)[C@@H](C)O)N(C)C(=O)[C@H](C)NC(=O)CN(C)C(=O)[C@H](Cc1ccccc1)NC(=O)[C@H](CO)NC(=O)[C@H](CO)NC(=O)[C@H](CCCNC(=N)N)NC(=O)[C@H](CCC(N)=O)NC(=O)[C@H](CC(C)C)NC(=O)[C@H](Cc1ccccc1)NC(=O)[C@H](CC(=O)O)NC(=O)[C@H](C)NC(=O)[C@H](CC(C)C)NC(=O)[C@H](CCCNC(=N)N)NC(=O)[C@H](CCC(N)=O)NC(=O)[C@@H](NC(=O)[C@H](C)NC(=O)[C@@H]1CSSC[C@H](NC(=O)[C@H](CCCNC(=N)N)NC(=O)CC[C@H](NC(=O)CCCCCCCCCCCCCCCCCCC(=O)O)C(=O)O)C(=O)N[C@@H](CC(N)=O)C(=O)N[C@@H]([C@@H](C)O)C(=O)N[C@@H](C)C(=O)N[C@@H]([C@@H](C)O)C(=O)N1)[C@@H](C)O [Compound 65, [19CD]-isoGlu-R-C( )-NTAT-C( )-ATQRLADFLQRSSF-Gly(Me)-A-Ile(Me)-LSSTEVGSNTP-NH2] ({C20 diacid-γGlu}-RCNTATCATQRLADFLQRSSF[Sar]A[NMeI]LSSTEVGSNTP-NH2; disulfide 2-7) | 140 | 260 | A (A = >90%) | A (A = >90%) | A (A = >90%) | A (A = >90%)
4 | CC[C@H](C)[C@@H](C(=O)N[C@@H](CC(C)C)C(=O)N[C@@H](CO)C(=O)N[C@@H](CO)C(=O)N[C@H](C(=O)N[C@@H](CCC(=O)O)C(=O)N[C@H](C(=O)NCC(=O)N[C@@H](CO)C(=O)N[C@@H](CO)C(=O)N[C@H](C(=O)N1C[C@H](O)C[C@H]1C(N)=O)[C@@H](C)O)C(C)C)[C@@H](C)O)N(C)C(=O)[C@H](C)NC(=O)CN(C)C(=O)[C@H](Cc1ccccc1)NC(=O)[C@H](CO)NC(=O)[C@H](CO)NC(=O)[C@H](CCCNC(=N)N)NC(=O)[C@H](CCC(N)=O)NC(=O)[C@H](CC(C)C)NC(=O)[C@H](Cc1ccccc1)NC(=O)[C@H](Cc1c[nH]cn1)NC(=O)[C@H](C)NC(=O)[C@H](CC(C)C)NC(=O)[C@H](CCCNC(=N)N)NC(=O)[C@H](CCC(N)=O)NC(=O)[C@@H](NC(=O)[C@H](C)NC(=O)[C@@H]1CSSC[C@H](NC(=O)[C@H](CCCNC(=N)N)NC(=O)CC[C@H](NC(=O)CCCCCCCCCCCCCCCCCCC(=O)O)C(=O)O)C(=O)N[C@@H](CC(N)=O)C(=O)N[C@@H]([C@@H](C)O)C(=O)N[C@@H](C)C(=O)N[C@@H]([C@@H](C)O)C(=O)N1)[C@@H](C)O [Compound 69, [19CD]-isoGlu-R-C( )-NTAT-C( )-ATQRLAHFLQRSSF-Gly(Me)-A-Ile(Me)-LSSTEVGSST-Hyp-NH2] ({C20 diacid-γGlu}-RCNTATCATQRLAHFLQRSSF[Sar]A[NMeI]LSSTEVGSST[Hyp]-NH2; disulfide 2-7) | 120 | 170 | A (A = >90%) | A (A = >90%) | B (B = 70-90%) | B (B = 70-90%)
